Columns and labels:
[1] = The drug is tested on WLS-086 corresponding to human gut metagenome with ENA study accession number: PRJEB37062 and ENA sample accession number: ERS12561752 for biotransformation under anaerobic condition. The drug concentrations were measured over 9 timepoints collected between 0 and 24 hours of incubation by liquid-chromatography-coupled mass spectrometry (LC–MS); details: 2 µM
[2] = human gut metagenome, 24 h, 2 µM
[3] = The drug is tested on Z-014 corresponding to rat gut metagenome with ENA study accession number: PRJEB37062 and ENA sample accession number: ERS12561814 for biotransformation under anaerobic condition. The drug concentrations were measured over 9 timepoints collected between 0 and 24 hours of incubation by liquid-chromatography-coupled mass spectrometry (LC–MS); details: 2 µM
[4] = human gut metagenome, 24 h, 2 µM; remark: listed apart in the source
[5] = human gut metagenome, 24 h, 2 µM; remark: listed apart in the source
[6] = human gut metagenome, 24 h, 2 µM; remark: listed apart in the source
[7] = The drug is tested on WLS-010 corresponding to human gut metagenome with ENA study accession number: PRJEB37062 and ENA sample accession number: ERS12561743 for biotransformation under anaerobic condition. The drug concentrations were measured over 9 timepoints collected between 0 and 24 hours of incubation by liquid-chromatography-coupled mass spectrometry (LC–MS); details: 2 µM
[8] = human gut metagenome, 24 h, 2 µM; remark: listed apart in the source
[9] = The drug is tested on WLS-077 corresponding to human gut metagenome with ENA study accession number: PRJEB37062 and ENA sample accession number: ERS12561750 for biotransformation under anaerobic condition. The drug concentrations were measured over 9 timepoints collected between 0 and 24 hours of incubation by liquid-chromatography-coupled mass spectrometry (LC–MS); details: 2 µM
[10] = The drug is tested on Z-001 corresponding to mouse gut metagenome with ENA study accession number: PRJEB37062 and ENA sample accession number: ERS12561801 for biotransformation under anaerobic condition. The drug concentrations were measured over 9 timepoints collected between 0 and 24 hours of incubation by liquid-chromatography-coupled mass spectrometry (LC–MS); details: 2 µM
[11] = human gut metagenome, 24 h, 2 µM; remark: listed apart in the source
[12] = human gut metagenome, 24 h, 2 µM; remark: listed apart in the source
[13] = human gut metagenome, 24 h, 2 µM; remark: listed apart in the source
[14] = The drug is tested on Z-026 corresponding to metagenome with ENA study accession number: PRJEB37062 and ENA sample accession number: ERS12561825 for biotransformation under anaerobic condition. The drug concentrations were measured over 9 timepoints collected between 0 and 24 hours of incubation by liquid-chromatography-coupled mass spectrometry (LC–MS); details: 2 µM
[15] = The drug is tested on WLS-052 corresponding to human gut metagenome with ENA study accession number: PRJEB37062 and ENA sample accession number: ERS12561747 for biotransformation under anaerobic condition. The drug concentrations were measured over 9 timepoints collected between 0 and 24 hours of incubation by liquid-chromatography-coupled mass spectrometry (LC–MS); details: 2 µM
[16] = The drug is tested on Z-007 corresponding to rat gut metagenome with ENA study accession number: PRJEB37062 and ENA sample accession number: ERS12561807 for biotransformation under anaerobic condition. The drug concentrations were measured over 9 timepoints collected between 0 and 24 hours of incubation by liquid-chromatography-coupled mass spectrometry (LC–MS); details: 2 µM
[17] = human gut metagenome, 24 h, 2 µM; remark: listed apart in the source
[18] = The drug is tested on WLS-370 corresponding to human gut metagenome with ENA study accession number: PRJEB37062 and ENA sample accession number: ERS12561793 for biotransformation under anaerobic condition. The drug concentrations were measured over 9 timepoints collected between 0 and 24 hours of incubation by liquid-chromatography-coupled mass spectrometry (LC–MS); details: 2 µM
[19] = human gut metagenome, 24 h, 2 µM; remark: listed apart in the source
[20] = human gut metagenome, 24 h, 2 µM; remark: listed apart in the source
Further: call rule not given here.

Bacterial Biotransformation [1] | Bacterial Biotransformation [2] | Bacterial Biotransformation [3] | Bacterial Biotransformation [4] | Bacterial Biotransformation [5] | Bacterial Biotransformation [6] | Bacterial Biotransformation [7] | Bacterial Biotransformation [8] | Bacterial Biotransformation [9] | Bacterial Biotransformation [10] | Bacterial Biotransformation [11] | Bacterial Biotransformation [12] | Bacterial Biotransformation [13] | Bacterial Biotransformation [14] | Bacterial Biotransformation [15] | Bacterial Biotransformation [16] | Bacterial Biotransformation [17] | Bacterial Biotransformation [18] | Bacterial Biotransformation [19] | Bacterial Biotransformation [20] | SMILES
Compound metabolized | Compound metabolized | Compound NOT metabolized | Compound metabolized | Compound metabolized | Compound metabolized | Compound metabolized | Compound metabolized | Compound NOT metabolized | Compound NOT metabolized | Compound metabolized | Compound metabolized | Compound metabolized | Compound NOT metabolized | Compound NOT metabolized | Compound NOT metabolized | Compound metabolized | Compound metabolized | Compound metabolized | Compound metabolized | CC(C)(C)N.CCC[C@H](N[C@@H](C)C(=O)N1[C@H](C(=O)O)C[C@@H]2CCCC[C@@H]21)C(=O)OCC [PERINDOPRIL ERBUMINE]
Compound metabolized | Compound metabolized | Compound NOT metabolized | Compound metabolized | Compound NOT metabolized | Compound metabolized | Compound NOT metabolized | Compound NOT metabolized | Compound NOT metabolized | Compound NOT metabolized | Compound NOT metabolized | Compound metabolized | Compound NOT metabolized | Compound NOT metabolized | Compound NOT metabolized | Compound NOT metabolized | Compound metabolized | Compound NOT metabolized | Compound metabolized | Compound NOT metabolized | C=C[C@H]1CN2CC[C@H]1C[C@H]2[C@H](O)c1ccnc2ccc(OC)cc12.C=C[C@H]1CN2CC[C@H]1C[C@H]2[C@H](O)c1ccnc2ccc(OC)cc12.O.O.O=S(=O)(O)O [QUININE SULFATE]

Continued, molecule first:

SMILES | Bacterial Biotransformation [1] | Bacterial Biotransformation [2] | Bacterial Biotransformation [3] | Bacterial Biotransformation [4] | Bacterial Biotransformation [5] | Bacterial Biotransformation [6] | Bacterial Biotransformation [7] | Bacterial Biotransformation [8] | Bacterial Biotransformation [9] | Bacterial Biotransformation [10] | Bacterial Biotransformation [11] | Bacterial Biotransformation [12] | Bacterial Biotransformation [13] | Bacterial Biotransformation [14] | Bacterial Biotransformation [15] | Bacterial Biotransformation [16] | Bacterial Biotransformation [17] | Bacterial Biotransformation [18] | Bacterial Biotransformation [19] | Bacterial Biotransformation [20]
CC(=O)CCCCn1c(=O)c2c(ncn2C)n(C)c1=O [PENTOXIFYLLINE] | Compound metabolized | Compound NOT metabolized | Compound NOT metabolized | Compound NOT metabolized | Compound NOT metabolized | Compound metabolized | Compound NOT metabolized | Compound NOT metabolized | Compound NOT metabolized | Compound NOT metabolized | Compound NOT metabolized | Compound metabolized | Compound NOT metabolized | Compound NOT metabolized | Compound NOT metabolized | Compound NOT metabolized | Compound metabolized | Compound NOT metabolized | Compound metabolized | Compound NOT metabolized
CCCN1C[C@H](CSC)C[C@@H]2c3cccc4[nH]cc(c34)C[C@H]21.CS(=O)(=O)O [PERGOLIDE MESYLATE] | Compound metabolized | Compound NOT metabolized | Compound NOT metabolized | Compound NOT metabolized | Compound NOT metabolized | Compound NOT metabolized | Compound NOT metabolized | Compound NOT metabolized | Compound NOT metabolized | Compound NOT metabolized | Compound NOT metabolized | Compound NOT metabolized | Compound NOT metabolized | Compound NOT metabolized | Compound NOT metabolized | Compound NOT metabolized | Compound NOT metabolized | Compound metabolized | Compound NOT metabolized | Compound NOT metabolized
O=C(NC(Cc1cc(=O)[nH]c2ccccc12)C(=O)O)c1ccc(Cl)cc1 (stereo not given) [REBAMIPIDE] | Compound metabolized | Compound NOT metabolized | Compound NOT metabolized | Compound NOT metabolized | Compound metabolized | Compound NOT metabolized | Compound metabolized | Compound NOT metabolized | Compound NOT metabolized | Compound NOT metabolized | Compound NOT metabolized | Compound NOT metabolized | Compound metabolized | Compound NOT metabolized | Compound NOT metabolized | Compound NOT metabolized | Compound NOT metabolized | Compound metabolized | Compound NOT metabolized | Compound NOT metabolized
CCOc1cc(CC(=O)N[C@@H](CC(C)C)c2ccccc2N2CCCCC2)ccc1C(=O)O [REPAGLINIDE] | Compound metabolized | Compound metabolized | Compound NOT metabolized | Compound metabolized | Compound metabolized | Compound metabolized | Compound metabolized | Compound metabolized | Compound metabolized | Compound metabolized | Compound NOT metabolized | Compound metabolized | Compound metabolized | Compound NOT metabolized | Compound metabolized | Compound metabolized | Compound NOT metabolized | Compound metabolized | Compound metabolized | Compound metabolized

Reference: ChEMBL document CHEMBL5724914, “Linking interpersonal differences in gut microbiota composition and drug biotransformation activity” (2024)
